The source of these data is PMC9230533, “Discovery of Triple Inhibitors of Both SARS-CoV-2 Proteases and Human Cathepsin L” (Pharmaceuticals, 2022).

Read-outs that look alike come from different tables or passages of the source.

One data set has as its target T1, human cathepsin L (Homo sapiens, UniProt P07711).
T1 construct: purchased R & D Systems
As to the kind of experiment: Human cathepsin L fluorogenic enzymatic inhibition assay. It is filed as biochemical. The following applies: for inhibitory effect on cathepsin L (in words): dose-response, Figure 4.

The nature of data set [1]: Oral median lethal dose in mice (literature). It is filed as in vivo. The following applies: mouse, ratio of cited LD50 values.
In the next data set the target is SARS-CoV-2 PLpro (Severe acute respiratory syndrome coronavirus 2, UniProt P0DTD1). As to the kind of experiment: SARS-CoV-2 PLpro fluorogenic enzymatic inhibition assay. It is filed as biochemical.
The target in the next data set is SARS-CoV-2 Mpro (Severe acute respiratory syndrome coronavirus 2, UniProt P0DTD1). As to the kind of experiment: SARS-CoV-2 Mpro fluorometric (FRET peptide) enzymatic inhibition assay. It is filed as biochemical. The conditions noted are these: for fold more potent than disulfiram against Mpro: ratio of IC50 values vs disulfiram.
In another data set the test system is SARS-CoV-2. Briefly: SARS-CoV-2 infectivity cells-based assay (Huh7.5.1, immunofluorescence), antiviral efficacy. The following applies: for CC50/EC50 Ratio (therapeutic ratio): CC50 over EC50; for EC50: Severe acute respiratory syndrome coronavirus 2, Huh-7.5.1, 48 h, read-out: SARS-CoV-2 Infectivity Cells-Based Assay EC50. It is filed as cell-based.
For data set [2] the following is noted: cited from earlier work.
The nature of data set [3]: Cell viability / cytotoxicity in the SARS-CoV-2 Huh7.5.1 infectivity assay. The following applies: human, Huh7.5.1 cells infected with SARS-CoV-2 (MOI 1.0), tested 60 to 0.08 µM, read-out: SARS-CoV-2 Infectivity Cells-Based Assay CC50 (converted).
The test system of a further data set is SARS-CoV PLpro. The conditions noted are these: cited from earlier work.
The mark [4] stands for this setting: 1 nM cathepsin L, Z-Phe-Arg-AMC substrate, read-out: Cathepsin L IC50.
The mark [5] stands for this setting: 24.46 nM PLpro, 50 µM Z-RLRGG-AMC, no DTT, 37 °C, read-out: PLpro IC50.
The mark [6] stands for this setting: 50 nM Mpro, 10 µM MCA-[…]-K(DNP)-K-NH2, no DTT, 37 °C, read-out: Mpro IC50.

T1 sequence (P07711 114-333): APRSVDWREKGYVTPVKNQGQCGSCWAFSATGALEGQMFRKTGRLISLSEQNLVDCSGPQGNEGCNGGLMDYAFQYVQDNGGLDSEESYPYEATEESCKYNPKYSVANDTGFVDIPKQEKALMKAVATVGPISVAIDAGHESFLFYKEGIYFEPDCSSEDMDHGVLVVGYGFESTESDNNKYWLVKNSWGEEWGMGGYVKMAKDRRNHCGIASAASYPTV

The term IC50 denotes the concentration that gives 50% inhibition. As a reminder, the EC50 is the concentration that produces a half-maximal response. One may read the CC50 as the concentration that lowers cell viability or growth by half. Regarding `S=C(SSC(=S)N1CCOCC1)N1CCOCC1` [RI173, di-Morpholine-thiuram disulfide], the IC50 amounted to 1700 ± 600 nM on human cathepsin L (setting [4]), 200 ± 100 nM at SARS-CoV-2 PLpro (setting [5]) and 600 ± 100 nM on SARS-CoV-2 Mpro (setting [6]). Besides, the “LD50 relative to LD50 of disulfiram” value in data set [1] is reported as “approximately 1.6 times”. For the same compound, the “fold more potent than disulfiram against PLpro” value at SARS-CoV-2 PLpro (ratio of IC50 values vs disulfiram) was 19 fold. The “fold more potent than disulfiram against Mpro” value at SARS-CoV-2 Mpro worked out at 2.5 fold. Further, the “concentration range of antiviral activity” value with SARS-CoV-2 (Huh7.5.1 cells, MOI 1.0, 48 h) is 100 to 200 nM. In addition, the “CC50/EC50 Ratio (therapeutic ratio)” value with SARS-CoV-2 (Huh7.5.1 cells) amounted to 3. Besides, the EC50 in the data set with SARS-CoV-2 turned out to be 100 nM. Further, the “LD50 Mouse oral” value in data set [2] is 3250 [31] mg/kg. In data set [3], the CC50 at 48 h is 300 nM.

`CN1CCN(C(=S)SSC(=S)N2CCN(C)CC2)CC1` [RI171, di-4-Methylpiperazine-thiuram disulfide]: the concentration for half-maximal inhibition (IC50) at human cathepsin L (setting [4]) was determined as 4500 ± 700 nM; on SARS-CoV-2 PLpro (setting [5]), 1900 ± 100 nM; at SARS-CoV-2 Mpro (setting [6]), 3200 ± 100 nM. The “CC50/EC50 Ratio (therapeutic ratio)” value in the data set with SARS-CoV-2 (Huh7.5.1 cells) was found to be 0.9. For the same compound, the concentration giving a half-maximal response (EC50) in the data set with SARS-CoV-2 came out at 1900 ± 200 nM. Further, in data set [2], the “LD50 Mouse oral” value is 100 [26] mg/kg. In data set [3], the CC50 at 48 h was 1700 nM.

In the case of `CC(C)N(C(=S)SSC(=S)N(C(C)C)C(C)C)C(C)C` [RI177, tetra-IsoPropyl-thiuram disulfide], the IC50 on human cathepsin L (setting [4]) is over 50000 nM; at SARS-CoV-2 PLpro it was over 50000 nM; at SARS-CoV-2 Mpro, 3800 ± 600 nM. In addition, the “inhibitory effect on cathepsin L (in words)” value against human cathepsin L was “did not seem to have any inhibitory effect”. The EC50 in the data set with SARS-CoV-2 was over 60000 nM. Further, the CC50 at 48 h in data set [3] is over 60000 nM.

With `CCN(CC)C(=S)SSC(=S)N(CC)CC` [Disulfiram, reference compound], the IC50 was 2200 ± 1400 nM against human cathepsin L and 24100 nM in the data set on SARS-CoV PLpro. Further, the EC50 with SARS-CoV-2 amounted to 500 ± 200 nM. Besides, the “LD50 Mouse oral” value in data set [2] was 1980 [29] mg/kg. Also, the CC50 at 48 h in data set [3] is 900 nM.

As for `CN(C)C(=S)SSC(=S)N(C)C` [RI174, tetra-Methyl-thiuram disulfide], the IC50 at human cathepsin L amounted to 16900 ± 6900 nM; on SARS-CoV-2 PLpro, 600 nM; at SARS-CoV-2 Mpro it was 2000 ± 300 nM. For the same compound, the EC50 with SARS-CoV-2 is under 80 nM. Moreover, the “LD50 Mouse oral” value in data set [2] is 1350 [33] mg/kg. Further, the CC50 at 48 h in data set [3] was under 80 nM.

Regarding `S=C(SSC(=S)N1CCCC1)N1CCCC1` [RI172, di-Pyrrolidine-thiuram disulfide], the IC50 came to 200 nM against human cathepsin L, 700 nM against SARS-CoV-2 PLpro and 600 ± 100 nM against SARS-CoV-2 Mpro. Further, the “fold more potent than disulfiram against Mpro” value on SARS-CoV-2 Mpro is given as 2.5 fold. Moreover, the EC50 in the data set on SARS-CoV-2 was under 80 nM. Besides, the CC50 at 48 h in data set [3] is under 80 nM.

With `CN(C(=S)SSC(=S)N(C)c1ccccc1)c1ccccc1` [RI176, di-Methyl-di-Phenyl-thiuram disulfide], the IC50 on human cathepsin L (setting [4]), against SARS-CoV-2 PLpro and at SARS-CoV-2 Mpro was over 50000 nM each time. The “inhibitory effect on cathepsin L (in words)” value on human cathepsin L was “did not seem to have any inhibitory effect”.

As for `CCOC(=S)SSC(=S)OCC` [RI175, O,O-di-Ethyl dithiobis-thioformate], the values for the IC50 on human cathepsin L, at SARS-CoV-2 PLpro and on SARS-CoV-2 Mpro were 1900 ± 600 nM, 600 ± 100 nM and 300 ± 100 nM, respectively. The “fold more potent than disulfiram against Mpro” value at SARS-CoV-2 Mpro is “about 5 fold”. Besides, the EC50 with SARS-CoV-2 is over 60000 nM. Further, the “LD50 Mouse oral” value in data set [2] is 1200 [32] mg/kg. The CC50 at 48 h in data set [3] is over 60000 nM.
